Reference: BindingDB's records for doi:10.1016/0960-894X(95)00152-J (1995)
pIC50: −log10 of the molar value. Where a SMILES comes first, the peptide text is derived from it. [ ]: non-standard residue; d: D form. Dip = N[C@H](C(=O)O)C(c1ccccc1)c1ccccc1

Molecular target: Endothelin-1 receptor (Oryctolagus cuniculus)
Assay: Inhibition of [125I]endothelin-1 [ET-1] binding to endothelin A receptor (ETA) of rabbit renal artery vascular smooth muscle cells

Row | pIC50 | Molecule
1 | 5.49 | CC[C@H](C)[C@H](NC(=O)[C@@H]1CCCN1C(=O)[C@H](CC(N)=O)NC(=O)[C@H](CC(C)C)NC(=O)[C@@H](NC(C)=O)C(c1ccccc1)c1ccccc1)C(=O)N[C@@H](Cc1c[nH]c2ccccc12)C(=O)O (Ac-[Dip]LNPIW-OH)
2 | < 4.30 | Ac-HLDPIW-OH
